# In patent US10131652B2, “Pyrimidinyloxy benzene derivatives as herbicides” (E. I. DU PONT DE NEMOURS AND COMPANY, priority 2014, dated 2018):
# Tests used:
# Format in all cases: in vivo
# [1] = tested on: Italian ryegrass (Lolium multiflorum); test: Test B pre-/postemergence plant response
# Description: (§1) Seeds of plant species selected from bamyardgrass (Echinochloa crus-galli), kochia (Kochia scoparia), ragweed (common ragweed, Ambrosia elatior), Italian ryegrass (Lolium multiflorum), large (Lg) crabgrass (Digitaria sanguinalis), giant foxtail (Setaria faberii), momingglory (Ipomoea spp.), pigweed (Amaranthus retroflexus), velvetleaf (Abutilon theophrasti), wheat (Triticum aestivum), and corn (Zea mays) were planted into a blend of loam soil and sand and treated preemergence with a directed soil spray using test chemicals formulated in a non-phytotoxic solvent mixture which included a surfactant. At the same time, plants selected from these crop and weed species and also blackgrass (Alopecurus myosuroides), and galium (catchweed bedstraw, Galium aparine) were planted in pots containing the same blend of loam soil and sand and treated with postemergence applications of test chemicals formulated in the same manner. Plants ranged in height from 2 to 10 cm and were in the one- to two-leaf stage for the postemergence treatment. Treated plants and untreated controls were maintained in a greenhouse for approximately 10 days, after which time all treated plants were compared to untreated controls and visually evaluated for injury. Plant response ratings, summarized in Table B, are based on a 0 to 100 scale where 0 is no effect and 100 is complete control. A dash (-) response means no test result.
# [2] = tested on: barnyardgrass (Echinochloa crus-galli); test: Test B pre-/postemergence plant response
# Description: as §1
# corn (Zea mays) = test: Test B pre-/postemergence plant response
# Description: as §1
# [3] = tested on: giant foxtail (Setaria faberii); test: Test B pre-/postemergence plant response
# Description: as §1
# kochia (Kochia scoparia) = test: Test B pre-/postemergence plant response
# Description: as §1
# [4] = tested on: pigweed (Amaranthus retroflexus); test: Test B pre-/postemergence plant response
# Description: as §1
# [5] = tested on: ragweed (common ragweed, Ambrosia elatior); test: Test B pre-/postemergence plant response
# Description: as §1
# [6] = tested on: wheat (Triticum aestivum); test: Test B pre-/postemergence plant response
# Description: as §1
# [7] = tested on: blackgrass (Alopecurus myosuroides); test: Test B postemergence plant response
# Description: (§2) At the same time, plants selected from these crop and weed species and also blackgrass (Alopecurus myosuroides), and galium (catchweed bedstraw, Galium aparine) were planted in pots containing the same blend of loam soil and sand and treated with postemergence applications of test chemicals formulated in the same manner. Plants ranged in height from 2 to 10 cm and were in the one- to two-leaf stage for the postemergence treatment. Treated plants and untreated controls were maintained in a greenhouse for approximately 10 days, after which time all treated plants were compared to untreated controls and visually evaluated for injury. Plant response ratings, summarized in Table B, are based on a 0 to 100 scale where 0 is no effect and 100 is complete control. A dash (-) response means no test result.
# [8] = tested on: galium (catchweed bedstraw, Galium aparine); test: Test B postemergence plant response
# Description: as §2
# [9] = tested on: barnyardgrass (Echinochloa crus-galli); test: Test C flooded paddy test plant response; conditions: Flood, 250 g ai/ha; scale of 0 to 100 where 0 is no effect and 100 is complete control; 13 to 15 days
# Description: (§3) Plant species in the flooded paddy test selected from rice (Oryza sativa), small-flower umbrella sedge (Cyperus difformis), ducksalad (Heteranthera limosa), and bamyardgrass (Echinochloa crus-galli) were grown to the 2-leaf stage for testing. At time of treatment, test pots were flooded to 3 cm above the soil surface, treated by application of test compounds directly to the paddy water, and then maintained at that water depth for the duration of the test. Treated plants and controls were maintained in a greenhouse for 13 to 15 days, after which time all species were compared to controls and visually evaluated. Plant response ratings, summarized in Table C, are based on a scale of 0 to 100 where 0 is no effect and 100 is complete control. A dash (-) response means no test result.
# [10] = tested on: ducksalad (Heteranthera limosa); test: Test C flooded paddy test plant response; conditions: Flood, 250 g ai/ha; scale of 0 to 100 where 0 is no effect and 100 is complete control; 13 to 15 days
# Description: as §3
# rice (Oryza sativa) = test: Test C flooded paddy test plant response; conditions: Flood, 250 g ai/ha; scale of 0 to 100 where 0 is no effect and 100 is complete control; 13 to 15 days
# Description: as §3
# [11] = tested on: small-flower umbrella sedge (Cyperus difformis); test: Test C flooded paddy test plant response; conditions: Flood, 250 g ai/ha; scale of 0 to 100 where 0 is no effect and 100 is complete control; 13 to 15 days
# Description: as §3
# [12] = 31 g ai/ha, Postemergence, 0 to 100 scale, 0 no effect, 100 complete control
# [13] = 31 g ai/ha, Preemergence, 0 to 100 scale where 0 is no effect and 100 is complete control
# [14] = 125 g ai/ha, postemergence, 0 to 100 scale, 0 no effect, 100 complete control
# [15] = Preemergence, 125 g ai/ha, 0 to 100 scale where 0 is no effect and 100 is complete control
# [16] = Postemergence, 500 g ai/ha, 0 to 100 scale (0 no effect, 100 complete control)
# [17] = Preemergence, 125 g ai/ha, 0 to 100 scale (0 no effect, 100 complete control)
# [18] = Preemergence, 500 g ai/ha, 0 to 100 scale where 0 is no effect and 100 is complete control
# [19] = Postemergence, 31 g ai/ha, 0 to 100 scale (0 no effect, 100 complete control)
# [20] = Preemergence, 31 g ai/ha, 0 to 100 scale (0 no effect, 100 complete control)
compound,measurement,setting,value
CCOC(OCC)c1cc(-c2ccccc2Oc2ncc(Cl)cn2)on1 [Compound 108],"Plant response rating, Ryegrass, Italian",[1]; [12],0
same,"Plant response rating, Ryegrass, Italian",[1]; [13],0
same,"Plant response rating, Ryegrass, Italian",[1]; [14],0
same,"Plant response rating, Ryegrass, Italian",[1]; [15],0
same,"Plant response rating, Barnyardgrass",[2]; [12],0
same,"Plant response rating, Barnyardgrass",[2]; [13],0
same,"Plant response rating, Barnyardgrass",[2]; [14],0
same,"Plant response rating, Barnyardgrass",[2]; [15],0
same,"Plant response rating, Corn",corn (Zea mays); [12],0
same,"Plant response rating, Corn",corn (Zea mays); [14],10
same,"Plant response rating, Foxtail, Giant",[3]; [12],0
same,"Plant response rating, Foxtail, Giant",[3]; [13],0
same,"Plant response rating, Foxtail, Giant",[3]; [14],0
same,"Plant response rating, Foxtail, Giant",[3]; [15],0
same,"Plant response rating, Kochia",kochia (Kochia scoparia); [12],0
same,"Plant response rating, Kochia",kochia (Kochia scoparia); [13],0
same,"Plant response rating, Kochia",kochia (Kochia scoparia); [14],0
same,"Plant response rating, Kochia",kochia (Kochia scoparia); [15],0
same,"Plant response rating, Pigweed",[4]; [12],0
same,"Plant response rating, Pigweed",[4]; [13],0
same,"Plant response rating, Pigweed",[4]; [14],0
same,"Plant response rating, Pigweed",[4]; [15],0
same,"Plant response rating, Ragweed",[5]; [12],0
same,"Plant response rating, Ragweed",[5]; [13],0
same,"Plant response rating, Ragweed",[5]; [14],0
same,"Plant response rating, Ragweed",[5]; [15],0
same,"Plant response rating, Wheat",[6]; [12],0
same,"Plant response rating, Wheat",[6]; [14],0
same,"Plant response rating, Blackgrass",[7]; [12],0
same,"Plant response rating, Blackgrass",[7]; [14],0
same,"Plant response rating, Galium",[8]; [12],30
same,"Plant response rating, Galium",[8]; [14],50
same,Barnyardgrass plant response rating,[9],0
same,Ducksalad plant response rating,[10],0
same,Rice plant response rating,rice (Oryza sativa),0
same,"Sedge, Umbrella plant response rating",[11],0
Cc1c(-c2ccccc2Oc2ncc(Cl)cn2)noc1C(F)(F)F [Compound 167],"Plant response rating, Ryegrass, Italian",[1]; [14],0
same,"Plant response rating, Ryegrass, Italian",[1]; [16],0
same,"Ryegrass, Italian plant response rating",[1]; [17],0
same,"Plant response rating, Ryegrass, Italian",[1]; [18],0
same,"Plant response rating, Barnyardgrass",[2]; [14],0
same,"Plant response rating, Barnyardgrass",[2]; [16],10
same,Barnyardgrass plant response rating,[2]; [17],0
same,"Plant response rating, Barnyardgrass",[2]; [18],10
same,"Plant response rating, Corn",corn (Zea mays); [14],0
same,"Plant response rating, Corn",corn (Zea mays); [16],20
same,"Plant response rating, Foxtail, Giant",[3]; [14],0
same,"Plant response rating, Foxtail, Giant",[3]; [16],10
same,"Foxtail, Giant plant response rating",[3]; [17],0
same,"Plant response rating, Foxtail, Giant",[3]; [18],30
same,"Plant response rating, Kochia",kochia (Kochia scoparia); [14],10
same,"Plant response rating, Kochia",kochia (Kochia scoparia); [16],60
same,Kochia plant response rating,kochia (Kochia scoparia); [17],0
same,"Plant response rating, Kochia",kochia (Kochia scoparia); [18],30
same,"Plant response rating, Pigweed",[4]; [14],10
same,"Plant response rating, Pigweed",[4]; [16],70
same,Pigweed plant response rating,[4]; [17],0
same,"Plant response rating, Pigweed",[4]; [18],20
same,"Plant response rating, Ragweed",[5]; [14],0
same,"Plant response rating, Ragweed",[5]; [16],0
same,Ragweed plant response rating,[5]; [17],0
same,"Plant response rating, Ragweed",[5]; [18],10
same,"Plant response rating, Wheat",[6]; [14],10
same,"Plant response rating, Wheat",[6]; [16],20
same,"Plant response rating, Blackgrass",[7]; [14],0
same,"Plant response rating, Blackgrass",[7]; [16],10
same,"Plant response rating, Galium",[8]; [14],10
same,"Plant response rating, Galium",[8]; [16],60
same,Barnyardgrass plant response rating,[9],0
same,Ducksalad plant response rating,[10],0
same,Rice plant response rating,rice (Oryza sativa),0
same,"Sedge, Umbrella plant response rating",[11],0
N#Cc1cc(-c2ccccc2Oc2ncc(Cl)cn2)on1 [Compound 223],"Plant response rating, Ryegrass, Italian",[1]; [13],0
same,"Plant response rating, Ryegrass, Italian",[1]; [14],0
same,"Plant response rating, Ryegrass, Italian",[1]; [19],0
same,"Ryegrass, Italian plant response rating",[1]; [17],0
same,"Plant response rating, Barnyardgrass",[2]; [13],0
same,"Plant response rating, Barnyardgrass",[2]; [14],10
same,"Plant response rating, Barnyardgrass",[2]; [19],0
same,Barnyardgrass plant response rating,[2]; [17],0
same,"Plant response rating, Corn",corn (Zea mays); [14],0
same,"Plant response rating, Corn",corn (Zea mays); [19],0
same,"Plant response rating, Foxtail, Giant",[3]; [13],0
same,"Plant response rating, Foxtail, Giant",[3]; [14],10
same,"Plant response rating, Foxtail, Giant",[3]; [19],0
same,"Foxtail, Giant plant response rating",[3]; [17],0
same,"Plant response rating, Kochia",kochia (Kochia scoparia); [13],0
same,"Plant response rating, Kochia",kochia (Kochia scoparia); [14],10
same,"Plant response rating, Kochia",kochia (Kochia scoparia); [19],0
same,Kochia plant response rating,kochia (Kochia scoparia); [17],0
same,"Plant response rating, Pigweed",[4]; [13],0
same,"Plant response rating, Pigweed",[4]; [14],60
same,"Plant response rating, Pigweed",[4]; [19],20
same,Pigweed plant response rating,[4]; [17],10
same,"Plant response rating, Ragweed",[5]; [13],0
same,"Plant response rating, Ragweed",[5]; [14],10
same,"Plant response rating, Ragweed",[5]; [19],0
same,Ragweed plant response rating,[5]; [17],0
same,"Plant response rating, Wheat",[6]; [14],0
same,"Plant response rating, Wheat",[6]; [19],0
same,"Plant response rating, Blackgrass",[7]; [14],0
same,"Plant response rating, Blackgrass",[7]; [19],0
same,"Plant response rating, Galium",[8]; [14],50
same,"Plant response rating, Galium",[8]; [19],30
same,Barnyardgrass plant response rating,[9],0
same,Ducksalad plant response rating,[10],65
same,Rice plant response rating,rice (Oryza sativa),0
same,"Sedge, Umbrella plant response rating",[11],70
Fc1cc(F)c(-c2cc(C(F)F)no2)c(Oc2ncc(Cl)cn2)c1 [Compound 107],"Plant response rating, Ryegrass, Italian",[1]; [12],0
same,"Plant response rating, Ryegrass, Italian",[1]; [14],0
same,"Ryegrass, Italian plant response rating",[1]; [20],0
same,"Plant response rating, Ryegrass, Italian",[1]; [15],0
same,"Plant response rating, Barnyardgrass",[2]; [12],0
same,"Plant response rating, Barnyardgrass",[2]; [14],0
same,Barnyardgrass plant response rating,[2]; [20],0
same,"Plant response rating, Barnyardgrass",[2]; [15],0
same,"Plant response rating, Corn",corn (Zea mays); [12],0
same,"Plant response rating, Corn",corn (Zea mays); [14],0
same,"Plant response rating, Foxtail, Giant",[3]; [12],0
same,"Plant response rating, Foxtail, Giant",[3]; [14],0
same,"Foxtail, Giant plant response rating",[3]; [20],0
same,"Plant response rating, Foxtail, Giant",[3]; [15],0
same,"Plant response rating, Kochia",kochia (Kochia scoparia); [12],0
same,"Plant response rating, Kochia",kochia (Kochia scoparia); [14],0
same,Kochia plant response rating,kochia (Kochia scoparia); [20],0
same,"Plant response rating, Kochia",kochia (Kochia scoparia); [15],0
same,"Plant response rating, Pigweed",[4]; [12],0
same,"Plant response rating, Pigweed",[4]; [14],0
same,Pigweed plant response rating,[4]; [20],0
same,"Plant response rating, Pigweed",[4]; [15],0
same,"Plant response rating, Ragweed",[5]; [12],0
same,"Plant response rating, Ragweed",[5]; [14],0
same,Ragweed plant response rating,[5]; [20],0
same,"Plant response rating, Ragweed",[5]; [15],0
same,"Plant response rating, Wheat",[6]; [12],0
same,"Plant response rating, Wheat",[6]; [14],0
same,"Plant response rating, Blackgrass",[7]; [12],0
same,"Plant response rating, Blackgrass",[7]; [14],0
same,"Plant response rating, Galium",[8]; [12],0
same,"Plant response rating, Galium",[8]; [14],0
same,Barnyardgrass plant response rating,[9],0
same,Ducksalad plant response rating,[10],0
same,Rice plant response rating,rice (Oryza sativa),0
same,"Sedge, Umbrella plant response rating",[11],0
